“And” between values parts separate entries of the source, which are not always exact repeats. Equal entries are not always repeated.
Assays:
[1] = system: patients with neuropathic pain; test: Clinical trial: pain intensity by 11-point pain intensity numerical rating scale (PI-NRS) over 12 weeks; type: in vivo, human
Excerpt: Patients with neuropathic pain were selected as subjects. The patients were asked to report the characteristics of neuropathic pain (type of neuropathic pain, site of occurrence, time of occurrence and frequency of occurrence), causative factors of pain, presence of diseases and relationship with pain, relationship between pain and drug medication, medication of therapeutic agents for pain, etc.
The characteristics of “nerve block treatment group (control group)” patients are described in Table 1, the characteristics of “choline alfoscerate intravenous administration group (Example 1)” patients are described in Table 2 and the characteristics of “choline alfoscerate oral administration group (Example 2)” patients are described in Table 3.
(§1) The “nerve block treatment group (control group)” patients were injected with 5 mL of 0.5% lidocaine at the sites of pain (4-5 points), once a week.
(§2) The “choline alfoscerate intravenous administration group (Example 1)” patients were intravenously injected slowly with choline alfoscerate (1 g/4 mL) mixed in 100 mL of physiological saline, twice a week.
(§3) The “choline alfoscerate oral administration group (Example 2)” patients were […] with choline alfoscerate (400 mg/capsule), 3 times a day.
Pain intensity was measured for 12 weeks. The pain intensity was evaluated according to the 11-point pain intensity numerical rating scale (PI-NRS), where 0=no pain, weakest pain=1 and most severe pain=10. 2-point reduction in the pain intensity was considered clinically significant as reported (Farrar 2001, Rowbotham 2001, Hawker 2011). The pain intensity was measured on the first visit (T0) and was compared with the pain intensity 2 weeks (T1), 4 weeks (T2), 6 weeks (T3), 8 weeks (T4), 10 weeks (T5) and 12 weeks (T6) after the first drug administration.
Statistical analysis was conducted using the SASS package ver. 23 and significance was tested by the paired t-test.

[2] = Clinical trial: side effects after the treatment; type: in vivo, human; conditions: Example 1: iv 1 g twice a week; Example 2: oral 400 mg 3 times a day; patients
Procedure: as §1, §2, §3
Because choline alfoscerate has no effect on the kidney and liver, it is thought that it can be used for people with kidney or liver problems as a therapeutic agent for neuropathic pain.

[3] = system: spared nerve injury (SNI) rat model; test: Von Frey filament test (50% up and down threshold) for mechanical allodynia; type: in vivo, Sprague-Dawley (SD) male rats; conditions: for Mechanical threshold (von Frey), Before: 4 weeks after surgery, before drug treatment; for Effect on mechanical allodynia (in words): pregabalin 30 mg/kg or choline alfoscerate 325 mg/kg ip once a day for one week
Excerpt: The spared nerve injury (SNI) rat model was used as an efficient neuropathic pain model and von Freytest was used for assessing mechanical threshold. The SNI model, one of the peripheral nerve injury models that made from the 3 nerve branches (sciatic nerve), the one was spared, and the other 2 nerves (tibial, common peroneal nerve) were axotomized. Within 4 days of injury, mechanical and thermal hyperalgesia occurs, lasting weeks to up to 6 months.
Sprague-Dawley (SD) male rats (Koatech, South Korea) weighing 100-150 g, were used to generate neuropathic pain rat models. The rats were maintained under specifically controlled conditions (ambient temperature 23±2° C., 12-h light/dark cycle). Food pellets (DBL, Chungbuk, South Korea) and water were supplied ad libitum. All procedures complied with Institutional Animal Care and Use Committee of Dankook University (IACUC, South Korea), which adheres to the guidelines issued by the Institution of Laboratory of Animal Resources.
After surgery, rats were divided into three groups: (1) control (0.9% normal saline), (2) pregabalin (30 mg/kg), (3) choline alfoscerate (325 mg/kg).
Four weeks later after surgery, Drugs were injected intraperitoneally once a day for one week.
To generate an efficient neuropathic pain model, the rats were anesthetized under 3% isoflurane (Hana Pharm., South Korea), the left calf of the rat leg was incised and the common peroneal and the tibial nerve of three peripheral nerve branches in the sciatic nerve were axotomized and the sural nerve was spared then the surgical site was closed. After the surgery, animals were placed in the home cage to recover. 2 weeks after surgery, hypersensitivity will occur in the lateral area of the rat left hind paw.
4 weeks later after surgery, we applied von Frey filament test established by 50% up and down threshold method for evaluate mechanical allodynia in SNI model we made (Chaplan et al. 1994). The pain measurement was carried out by three people in order to objectify the results. Rats were habituated 5 minutes in the apparatus. […] We stimulated 5 times in the ventral aspect of rat left paw using each filament from thick to thin. If the rat response to stimulate over 3 times, we considered that the rat has NP. The pain response was determined by the behaviors of the rats suddenly took off their foot and shrank or licked their foot with their tongues. The behavioural patterns of the pain were recorded to calculate the threshold value of the pain.
4 weeks after surgery, when the mechanical stimuli were applied to the left paw of rats using von Frey monofilaments, thresholds were calculated by looking at the behavioral patterns. Through this test, the behavioral patterns that appeared when mechanical stimuli were applied to the neuropathic pain model and expressed as threshold which was a […] assessment of the pain scoring.

C[N+](C)(C)CCOP(=O)([O-])OC[C@H](O)CO [Choline alfoscerate, choline alfoscerate]
Change in pain intensity of neuropathic pain (in words) ([1]; Example 1: iv 1 g twice a week, Example 2: oral 400 mg 3 times a day, 12 weeks): significant decrease in the pain intensity | Time after drug administration at which some patients reported decreased neuropathic pain ([1]; Example 1: iv, Example 2: oral, some patients): the next day | Pain intensity (PI-NRS) ([1]; T0, first visit before drug administration, choline alfoscerate iv group, 1 g/4 mL in 100 mL saline twice a week, n=59, listed as Example 1): 6.64 points and 6.64 ± 1.03 points | Pain intensity (PI-NRS) ([1]; T0, first visit before drug administration, choline alfoscerate oral group, 400 mg/capsule 3 times a day, n=54, listed as Example 2): 6.61 points and 6.61 ± 0.83 points | Decrease in pain intensity (PI-NRS) from T0 ([1]; T0 to T6 (12 weeks), choline alfoscerate iv 1 g twice a week): 4.18 points | Decrease in pain intensity (PI-NRS) from T0 ([1]; T0 to T6 (12 weeks), choline alfoscerate oral 400 mg 3 times a day): 4.48 points | Pain intensity (PI-NRS) ([1]; T1, 2 weeks after first administration, choline alfoscerate iv 1 g twice a week, listed as Example 1): 5.19 points and 5.19 ± 1.59 points | Pain intensity (PI-NRS) ([1]; T1, 2 weeks after first administration, choline alfoscerate oral 400 mg 3 times a day, listed as Example 2): 5.41 points and 5.41 ± 1.16 points | Pain intensity (PI-NRS) ([1]; T2, 4 weeks, choline alfoscerate iv 1 g twice a week): 4.56 ± 1.50 points | Pain intensity (PI-NRS) ([1]; T2, 4 weeks, choline alfoscerate oral 400 mg 3 times a day): 4.52 ± 1.42 points | Pain intensity (PI-NRS) ([1]; T3, 6 weeks, choline alfoscerate iv 1 g twice a week): 3.92 ± 1.42 points | Pain intensity (PI-NRS) ([1]; T3, 6 weeks, choline alfoscerate oral 400 mg 3 times a day): 3.63 ± 1.45 points | Pain intensity (PI-NRS) ([1]; T4, 8 weeks, choline alfoscerate iv 1 g twice a week): 3.34 ± 1.21 points | Pain intensity (PI-NRS) ([1]; T4, 8 weeks, choline alfoscerate oral 400 mg 3 times a day): 3.00 ± 1.23 points | Pain intensity (PI-NRS) ([1]; T5, 10 weeks, choline alfoscerate iv 1 g twice a week): 2.85 ± 1.10 points | Pain intensity (PI-NRS) ([1]; T5, 10 weeks, choline alfoscerate oral 400 mg 3 times a day): 2.59 ± 1.13 points | Pain intensity (PI-NRS) ([1]; T6, 12 weeks, choline alfoscerate iv 1 g twice a week, listed as Example 1): 2.46 points and 2.46 ± 0.99 points | Pain intensity (PI-NRS) ([1]; T6, 12 weeks, choline alfoscerate oral 400 mg 3 times a day, listed as Example 2): 2.13 points and 2.13 ± 0.99 points | Side effect after the treatment [2]: no side effect | Mechanical threshold (von Frey), Before ([3]; choline alfoscerate group): 2.59 ± 0.87 g | Mechanical threshold (von Frey), After ([3]; after choline alfoscerate 325 mg/kg intraperitoneally once a day for one week): 7.68 ± 4.48 g | Effect on mechanical allodynia (in words) [3]: significantly suppressed mechanical allodynia

CCN(CC)CC(=O)Nc1c(C)cccc1C [Control group, lidocaine]
Pain intensity (PI-NRS) ([1]; T0, first visit before drug administration, nerve block group, 5 mL of 0.5% lidocaine at sites of pain once a week, n=38): 7.00 ± 0.52 points | Pain intensity (PI-NRS) ([1]; T0, first visit before drug administration, nerve block group, 5 mL of 0.5% lidocaine at sites of pain once a week, n=38, listed as control group): 7.00 points | Decrease in pain intensity (PI-NRS) from T0 ([1]; T0 to T1 (2 weeks), nerve block 0.5% lidocaine once a week): 1.61 points | Decrease in pain intensity (PI-NRS) from T0 ([1]; T0 to T6 (12 weeks), nerve block 0.5% lidocaine once a week): 4.76 points | Pain intensity (PI-NRS) ([1]; T1, 2 weeks after first administration, nerve block 0.5% lidocaine once a week): 5.39 ± 0.89 points | Pain intensity (PI-NRS) ([1]; T1, 2 weeks after first administration, nerve block 0.5% lidocaine once a week, listed as control group): 5.39 points | Pain intensity (PI-NRS) ([1]; T2, 4 weeks, nerve block 0.5% lidocaine once a week): 4.66 ± 0.85 points | Pain intensity (PI-NRS) ([1]; T3, 6 weeks, nerve block 0.5% lidocaine once a week): 3.63 ± 0.79 points | Pain intensity (PI-NRS) ([1]; T4, 8 weeks, nerve block 0.5% lidocaine once a week): 2.87 ± 0.81 points | Pain intensity (PI-NRS) ([1]; T5, 10 weeks, nerve block 0.5% lidocaine once a week): 2.37 ± 0.79 points | Pain intensity (PI-NRS) ([1]; T6, 12 weeks, nerve block 0.5% lidocaine once a week): 2.24 ± 0.91 points | Pain intensity (PI-NRS) ([1]; T6, 12 weeks, nerve block 0.5% lidocaine once a week, listed as control group): 2.24 points

CC(C)C[C@H](CN)CC(=O)O [Pregabalin, pregabalin]
Mechanical threshold (von Frey), Before ([3]; pregabalin group): 2.42 ± 0.81 g | Mechanical threshold (von Frey), After ([3]; after pregabalin 30 mg/kg intraperitoneally once a day for one week): 9.91 ± 4.12 g | Effect on mechanical allodynia (in words) [3]: significantly suppressed mechanical allodynia
